According to patent publication US20070172469A1, “Methods For Inhibiting Viral Replication In Vivo” (priority 2002, published 2007):
Where two headings read alike, the source gives them in different places.

Columns and labels:
HCV [1] = assay: In vitro HCV RNA replication assay in AVA5 cells (dot blot); assay type: cell-based, Hepatitis C virus (HCV); conditions: for IC50 / IC90: HCV mRNA levels
AVA5 cells = assay: Actin mRNA level in AVA5 cells (nonspecific inhibitory activity); assay type: cell-based, human; conditions: 3 days, ADI-PEG20 0.01 IU/ml, alpha interferon 10 IU/ml, ribavirin 100 μM
[2] = Toxicity in AVA5 cells, neutral red dye uptake; conditions: human, AVA5 cells (HCV RNA replicating cell line derived from Huh7)
HCV [3] = conditions: cited from earlier work
[4] = cited from earlier work
[5] = humans chronically infected with HCV

NC(=O)c1ncn([C@@H]2O[C@H](CO)[C@@H](O)[C@H]2O)n1 [ribavirin, 1-β-D-ribo-furanosyl-1,2,4-trizole-3-carboxamide]
IC50 (HCV [1]; Hepatitis C virus, 72 h, AVA5 cells, 3 days, read-out: IC50): > 10 µM
IC90 (HCV [1]; Hepatitis C virus, 72 h, AVA5 cells, 3 days, read-out: IC90): > 10 µM
inhibition at 100 µM (HCV [1]; Hepatitis C virus, Ava5, 72 h): 25%
mRNA % inhibition of actin (AVA5 cells): 98%
CC50 at 3 days [2]: 74 µM

alpha interferon
% inhibition of HCV (HCV [1]; AVA5 cells, 3 days, ADI-PEG20 0.01 IU/ml, alpha interferon 10 IU/ml, ribavirin 100 μM): 92%
IC50 (HCV [1]; AVA5 cells, 3 days): 2.1 IU/ml
IC90 (HCV [1]; AVA5 cells, 3 days): 9.0 IU/ml
SI (HCV [1]; selectivity index CC50/EC50, AVA5 cells): >4762
mRNA % inhibition of actin (AVA5 cells): 11%
patients in whom effective (HCV [3]; [5]): ~50%
treatment required to achieve a 50% reduction in HCV titers (HCV [3]; [5]): 3-6 months
patients who initially responded to the therapy (HCV [3]; various clinical trials): approximately 40%
responders who relapsed after the treatment ended (HCV [3]; various clinical trials): 70%
patients with influenza-like illness with fever, chills, myalgias and malaise ([4]; PEG and non PEG formulated versions): up to 82%
patients with neuropsychiatric complications ([4]; depression, irritability, anxiety): ~20%
alopecia ([4]; human, in vivo): ~5%
bone marrow suppression with granulocytopenia, anemia or thrombocytopenia ([4]; human, in vivo): ~5%
